# Earlier results as cited in US20200018753A1, “NON-INVASIVE BIOMARKER TO IDENTIFY SUBJECT AT RISK OF PRETERM DELIVERY” (NYU Winthrop Hospital, priority 2012, published 2020).
# System: Prostaglandin D2 formation
# Conditions: IL-1β-stimulated SK-N-SH neuronal cells; presumably by inhibiting cyclooxygenase (COX), especially COX-2
structure (smiles),measurement,value
Oc1ccc(C=Cc2cc(O)cc(O)c2)cc1 [Resveratrol],formation of Prostaglandin D2,reduce formation of Prostaglandin D2
